Patent US8097585B2, “Methods of treating inflammation by administration of heme oxygenase-1 and products of heme degradation” (priority 2002, dated 2012)
Where a name gives a salt, the structure may show the parent alone.

Key:
DSS-colitis = DSS-colitis (acute colitis) mouse model: weight loss, DAI, symptoms, crypt score; type: in vivo, C57BL/6 mice; settings: for mean time to development of loose stool / mean time to bleeding: Kaplan-Meier; for mean time to development of loose stool: non-treated 3 days; for mean time to bleeding: non-treated 5.1 days; for colon histology (cryptal structure): day 7, light microscopy; for crypt score: day 7, non-treatment group 4.8; for disease activity index (DAI): i.p. daily (CoPPIX 5 mg/kg; biliverdin 50 μmol/kg)
Source text: Animals. Pathogen-free male C57BL/6 mice, 4-6 weeks of age (Taconic; C57BL/6×129 svj strain) were used in this example. Mice were kept for one week at 4 mice/cage and fed normal laboratory chow and drinking water ad libitum prior to the experiments. All mice weighed between 22.5 g and 27.7 g at the beginning of the trial. The animal experimentation protocol was reviewed and approved by the Animal Care and Use Committees of the Beth Israel Deaconess Medical Center.
Induction of Colitis. Colitis was induced by feeding mice 5% (wt/v) dextran sodium sulfate (DSS) (MW 40,000; ICN Biomedicals Inc., OH), dissolved in distilled water, for a period of 7 days. The resulting condition was termed “DSS-colitis.” Control animals were fed distilled water ad libitum. The mortality rate in the control group and the CO-treated group was 10% (2/20) and 14% (2/14), respectively. These animals were excluded from the statistical analysis. In the other groups, no mortality occurred during 7 days of 5% DSS treatment.
Experimental Reagents and Treatment Protocol. Cobalt protoporphyrin (CoPPIX), zinc protoporphyrin (ZnPPIX, Porphyrin Products, Logan, Utah) and biliverdin dihydrochloride (ICN Biomedicals Inc., OH) were dissolved in a small amount 0.2 M NaOH, subsequently adjusted to a pH of 7.4 with 1 M HCl, and diluted in 0.9% NaCl. The stock solutions (CoPPIX and ZnPPIX=1 mg/ml, biliverdin=10 mM) were aliquoted and kept at −70° C. until used. Light exposure was limited as much as possible. CoPPIX (5 mg/kg), ZnPPIX (20 mg/kg) and biliverdin (50 μmol/kg) were administered to the mice intraperitoneally (i.p.) 24 hours before induction of DSS-colitis and daily thereafter. Desferoxamine (DFO) was prepared in imidazole buffer (50 mM imidazole, 220 mM NaCl, pH 7.4). DFO was injected subcutaneously (s.c.) twice daily (125 mg/kg) or infused i.p. (130 mg/kg/day; pumping rate 0.5 μl/hour for 8 days) by miniosmotic Alzet™ pumps (Alza Corporation, Palo Alto, Calif.) (Postma et al., Exp. Parasitol. 89(3):323-30 1998). The pumps were installed i.p. 24 hours before induction of colitis. When animals were sacrificed at day 7 of DSS treatment, the pumps were removed and evaluated to determine if DFO application had taken place.
CO gas was administrated exogenously by putting animals in a CO exposure chamber (Otterbein et al., Nat. Med. 6(4):422-8, 2000). Briefly, CO at a concentration of 1% (10,000 parts per million (ppm)) in compressed air was mixed with balanced air (21% oxygen) in a stainless steel mixing cylinder before entering the exposure chamber. CO concentrations were controlled by varying the flow rates of CO in a mixing cylinder before delivery to the chamber. Because the flow rate is primarily determined by the O2 flow, only the CO flow was changed to deliver the final concentration to the exposure chamber. A CO analyzer (Interscan Corporation, Chatsworth, Calif.) was used to measure CO levels continuously in the chamber. Mice were placed in the chamber 24 hours before the induction of the colitis and were kept in the exposure chamber during the whole period of the experiment (total of 8 days). […] Animals were removed daily from the chamber to assess weight and stool.
Evaluation of Symptoms of Colitis. All animals were evaluated clinically on a daily basis. The evaluation of each animal included a measurement of weight, hemoccult positivity and examination of stool for the presence of gross blood and stool consistency. The disease activity index (DAI) was calculated by scoring percent weight loss, intestinal bleeding (no blood; occult blood=hemoccult+; gross blood) and stool consistency (normal stool=well-formed pellets; loose stool=pasty and semiformed stools; diarrhea=liquid stool that stuck to the anus) (Table 1).
The animals were sacrificed, and the whole colon from the colo-cecal junction to the anal verge was removed and gently cleaned of stool. […]

[1] = test system: DBA/2 islets in diabetic B6AF1 recipients; experiment: Allogeneic islet transplantation, graft survival and tolerance test; type: in vivo, mice
Experimental: Animals. Male DBA/2, B6AF1 and DBA/1 mice 6-8 week of age (Jackson) are used in the experiments. Mice were kept for 2 weeks at 4 mice/cage and fed normal laboratory chow before using for the experiment.
Treatment protocol. Recipients were rendered diabetic using streptozotocin (STZ, 225 mg/kg). Five days after STZ administration, animals with two consecutive blood glucose levels exceeding 350 mg/dl are used as recipients. Islets (500) are transplanted under the kidney capsule of the recipients.
Reagents. Cobalt protoporphyrin (CoPPIX, Porphyrin Products, Logan, Utah), biliverdin dihydrochloride and bilirubin (ICN Biomedicals Inc., OH) were dissolved in a small amount of 0.2 M NaOH, subsequently adjusted to a pH of 7.4 with 1 M HCl, and diluted in 1×PBS. The stock solutions (CoPPIX=2 mg/ml, biliverdin=3.2 mg/ml, bilirubin=0.5 mg/ml) were aliquoted and kept at −70° C. until used. Light exposure was limited as much as possible.
Induction of HO-1/Administration of biliverdin/bilirubin. When given to the donor, CoPPIX (20 mg/kg) was given 24 hours before islet isolation to induce HO-1 expression. To verify HO-1 expression in different organs after CoPP treatment, tissue samples are collected 24 hours after treatment and snap frozen in liquid nitrogen. Immunohistological analysis of HO-1 expression is performed using an anti-HO-1 antibody. CoPPIX (20 mg/kg) was administrated to the recipient intraperitoneally (i.p.) on day-1, 1, 3, 5 and 7. Biliverdin (50 μmol/kg) or bilirubin (8.5 μmol/kg) was given intraperitoneally to the donor one hour before islet isolation. For the recipient, biliverdin (50 μmol/kg) or bilirubin ([…]) was administered intraperitoneally either daily or twice per day from day-1 until day 13. No further treatment was given afterwards.
Measurement of Glucose level. Glucose levels were tested twice weekly after transplantation. Glucose levels of <200 mg/dl were considered normoglycemic. Grafts were considered rejected when two consecutive glucose levels were >300 mg/dl.
Tolerance test. The first graft was removed from a number of animals that had islets surviving long-term (longer than 100 days) by doing a nephrectomy. Islets syngeneic with the original donor were transplanted under the contralateral kidney capsule without further treatment. If those second transplanted islets also survived longer than 100 days without further treatment, the recipients were considered tolerant.

| SMILES | mean time to development of loose stool (DSS-colitis) [days] | mean time to bleeding (DSS-colitis) [days] | colon histology (cryptal structure) (DSS-colitis) | crypt score (DSS-colitis) | disease activity index (DAI) (DSS-colitis; day 7 of DSS) | mean total percent body weight loss (DSS-colitis; day 7 of DSS, i.p. daily from 24 hours before DSS (CoPPIX 5 mg/kg; biliverdin 50 μmol/kg)) [%] | antigen specific tolerance ([1]; long-term survival animals) | long-term surviving islets ([1]; treatment of the recipient only) | difference in DAI between CoPP-treated and untreated groups (DSS-colitis; day 2) | difference in DAI between CoPP-treated and untreated groups (DSS-colitis; day 5 (maximum protection)) | difference in DAI between CoPP-treated and untreated groups (DSS-colitis; toward the end of the 7 days) | islet allograft survival ([1]; CoPP 20 mg/kg, donor one day before, recipient days −1, 1, 3, 5 and 7) | islet allograft survival ([1]; CoPP, HO-1 induced only in the donor) | acceptance of 2nd graft (DBA/2 islets) in tolerance test ([1]; all five animals, no further treatment) [days] | third party grafts in tolerance test ([1]; n=3) |
| --- | --- | --- | --- | --- | --- | --- | --- | --- | --- | --- | --- | --- | --- | --- | --- |
| C=CC1=C(C)/C(=C/C2=NC(=C\c3[nH]c(/C=C4\NC(=O)C(C)=C4C=C)c(C)c3CCC(=O)O)/C(CCC(=O)O)=C2C)NC1=O [biliverdin, biliverdin dihydrochloride] | 4.4 | 6.2 | preserved cryptal structure | 3 | 3.3 | 16.5 | seen in some | significant percentage of long-term surviving islets |  |  |  |  |  |  |  |
| C=CC1=C(C)c2cc3[n-]c(cc4nc(cc5[n-]c(cc1n2)c(C)c5CCC(=O)[O-])C(CCC(=O)[O-])=C4C)c(C)c3C=C.[Co+2].[H+].[H+] [CoPP, Cobalt protoporphyrin] | 4.6 | 6.9 | remaining cryptal structures and intact epithelial surface | 2.6 | 2.8 |  |  |  | 0.4 | 1.64 | 1.04 | prolongation of survival in general but also to some islets surviving long-term | prolonged survival and function of the islets in the recipient but also to an occasional long-term surviving graft | > 100 | rejected rapidly |
